Results on one substance are retold here after patent US20240115672A1, “TREATMENT OF AN IOP CONDITION” (THE RESEARCH FOUNDATION FOR THE STATE UNIVERSITY OF NEW YORK, priority 2021, published 2024).

Test [1] relates to MMP-1, MMP-2, MMP-9, MMP-13, PLAT, PAI-1 mRNA. The test is described as follows: qRT-PCR gene expression in sheep TM and ciliary processes after tPA. Format: in vivo. An excerpt: Methods. Tissue Collection and Isolation of RNA. After animals were euthanized, eyes were immediately enucleated. Eyes were then opened anterior to the equator using a razor blade. The lens was removed from the anterior part, and the tissue was immersed in RNA stabilizing agent (RNAlater; Ambion, Carlsbad, CA) and placed at […] for transportation to the United States. Upon arrival in the United States, TM and ciliary processes (CP) were dissected on ice in the presence of RNA stabilizing agent as described previously. Dissected tissue was homogenized, and total RNA was extracted using TRIzol reagent (Gibco. Carlsbad, CA). Briefly, the tissue was homogenized in TRIzol, and chloroform was added to separate proteins from RNA. After centrifugation, the RNA-containing supernatant was aspirated. The RNA was precipitated with isopropanol, washed with 75% ethanol, treated with DNase, and column purified using a commercial kit (RNAeasy Mini Kit; Qiagen, Valencia, CA) in accordance with the manufacturer's instructions. RNA concentrations were determined with a spectrophotometer (Nanodrop; Thermo Scientific, Wilmington, DE) and the 260:280-nm absorbance ratio was calculated to determine RNA purity.
Quantitative Real-Time PCR (qRT-PCR) The RNA samples were reverse transcribed with random hexamers to cDNA using a reverse transcription kit (Quantitect; Qiagen) in accordance with the manufacturer's instructions. Quantitative RT-PCR was performed using a commercial kit (SYBR Green RT-PCR Reagents Kit; Applied Biosystems, Carlsbad, CA) in an ABI PRISM 7900HT sequence detector (Applied Biosystems). The sheep endogenous mRNA expression of matrix metalloproteinase-1 (MMP-1), matrix metalloproteinase-2 (MMP-2), matrix metalloproteinase-9 (MMP-9), matrix metalloproteinase-13 (MMP-13). and plasminogen activator tissue (PLAT) in the TM were investigated. Plasminogen activator inhibitor 1 (PA1-1) mRNA expression was measured in both TM and ciliary processes tissues. Relative quantification of gene expression was performed using the standard curve method. Mean threshold cycle (Ct) of the samples was compared among the groups by using the Ct. of 18S as an internal control. The DCt was calculated as the difference in Ct values derived from the target gene and the 18S gene. The DDCt was calculated as DCt of the normalized assayed genes in the treated samples minus DCt of normalized assayed genes in the naive control samples. Relative expression was calculated by the 2exp DD Ct formula.

Test [2] deals with Mmp-2, Mmp-9, Mmp-13 mRNA in angle ring tissues. The test is described as follows: Mmp expression in Tg-MYOCY437H angle ring tissues (Example 19). Format: in vivo, mouse. Here is the method:
Eyes were flash frozen in liquid nitrogen after outflow facility determination and subsequently dissected on ice to obtain the angle ring tissues containing the TM, as previously described (Kumar, Shah et al. 2013). Dissected TM tissues were immersed in RNAlater solution (Invitrogen, Waltham, MA, USA) and then snap-frozen and stored at −80° C. until RNA extraction. Tissue collected was pooled (four eyes) and homogenized in TRIzol reagent for RNA isolation, per manufacturer's instructions (Life Technologies, Carlsbad, CA, USA). RNA concentration was determined with a Nanodrop ND-1000 Spectrophotometer (Thermo Scientific, Wilmington, DE, USA). cDNA was synthesized by using High-Capacity cDNA
Reverse Transcription Kit (Applied Biosystems, Waltham, MA, USA) according to manufacturer's protocol. Quantitative real-time PCR (qRT-PCR) was performed by using Green-2-Go qPCR Mastermix-ROX (Bio Basic, Amherst, NY, USA) on a QuantStudio 6 Flex thermal cycler (Applied Biosystems, Carlsbad, CA, USA). mRNA expression of Plat, Plait, Pai-1, Mmp-2, Mmp-9, and Mmp-13 in angle ring tissues was determined. Primers were designed by using Primer-BLAST (haps://www.ncbi.nlm.nih.gov/tools/primer-blast/index.cgi?LINK_LOC=BlastHome; in the public domain); primer sequences are listed in Table 2. Primer specificity was confirmed by agarose gel electrophoresis and multiple-sized amplification products were absent on inspection of melting curves. Target mRNA expression values were normalized to the expression levels of Rps11 (ribosomal protein S11). The relative fold change was calculated by using the ΔΔCt method (Hu, Wang et al. 2015). Outliers identified via the Thompson Tau test were removed from analysis.

The test system is the same in test [3]. The test is described as follows: Mmp expression in TA and protein treated C57BL/6J eyes (Example 13). Format: in vivo, mouse. As to conditions: TA + protein; compared to BSA treated controls; p<0.0001.
Test [4] concerns Mmp-2, Mmp-9, Mmp-13 and Plat mRNA. The test is described as follows: Mmp and Plat expression in protein treated C57BL/6J eyes without steroids (Example 15). To be noted: non-steroid treated C57BL/6 eyes; group means versus BSA; p>0.05. The format is in vivo, mouse.
[5] abbreviates: 2 days after intravitreal protein.

Consider “tPA: recombinant human tissue plasminogen activator (ACTILYSE; Boehringer Ingelheim), enzymatically active”, for which, in test [1] (sheep, after tPA), the MMP1 expression result was “up-regulates”, the MMP2 expression entry was “up-regulates”, the MMP9 expression result was “up-regulates” and the MMP13 expression result is given as “up-regulates”. The PAI-1 expression entry in test [1] (trabecular meshwork (TM) and ciliary processes) is given as “up-regulating”. In test [2] (setting [5]), the “Mmp-2 expression compared to BSA treated eyes” value was “no significant difference” and the “Mmp-9 expression compared to BSA treated eyes” value was “not detected”. Besides, in test [2] (2 days after intravitreal protein, p<0.01), the “Mmp-13 expression compared to BSA treated eyes” value is reported as “significantly higher”. Further, in test [2] (5 days treatment), the “Mmp-9 expression compared to BSA treated eyes” value is given as “higher” and the “Mmp-13 expression compared to BSA treated eyes” value is reported as “significantly higher”. Further, the “Mmp-2 expression compared to BSA treated eyes” value in test [2] (5 days treatment, p>0.05) is “no significant difference”. Moreover, the Mmp-2 expression result in test [3] is “significant upregulation”. Moreover, the “gene expression changes in Mmp-2, Mmp-9, and Mmp-13” value in test [4] was “not significantly different”.
